Data set [1] concerns the target T1, Nuclear receptor ROR-gamma (Homo sapiens, UniProt P51449).
T1 sequence (P51449 whole entry): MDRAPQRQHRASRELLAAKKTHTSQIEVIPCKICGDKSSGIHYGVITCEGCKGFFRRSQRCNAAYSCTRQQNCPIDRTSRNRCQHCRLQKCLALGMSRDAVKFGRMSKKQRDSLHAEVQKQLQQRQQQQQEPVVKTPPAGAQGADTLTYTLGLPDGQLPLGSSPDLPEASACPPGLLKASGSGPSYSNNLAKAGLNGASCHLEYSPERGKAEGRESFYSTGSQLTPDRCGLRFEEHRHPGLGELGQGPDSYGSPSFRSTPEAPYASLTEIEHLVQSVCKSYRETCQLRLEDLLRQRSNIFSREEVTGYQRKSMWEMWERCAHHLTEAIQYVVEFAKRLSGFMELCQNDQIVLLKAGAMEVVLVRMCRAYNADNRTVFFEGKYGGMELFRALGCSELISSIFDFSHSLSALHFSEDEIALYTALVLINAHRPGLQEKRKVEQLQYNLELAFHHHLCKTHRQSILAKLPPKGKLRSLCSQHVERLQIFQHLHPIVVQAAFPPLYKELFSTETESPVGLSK
Kind of data set: Inhibition of human GAL4-fused RORgamma LBD transfected in HEK293T cell measured after 24 hrs by luciferase reporter assay. It is filed as cell-based.

The nature of data set [2]: Suppression of Th17 polarization in human CD4+ T cells cultured under Th17-skewing conditions measured after 4 days.
Data set [3] can be described thus: Inhibition of IL-17A production in human PBMC by ELISA. In kind it is functional, cell-based.
Data set [4] is described as follows: Inhibition of IL-17F production in human PBMC by ELISA. It is filed as functional, cell-based.
Data set [5] can be described thus: Inhibition of IL-21 production in human PBMC by ELISA. In kind it is functional, cell-based. (In general: ELISA stands for enzyme-linked immunosorbent assay.)
Data set [6] is described as follows: Inhibition of IL-22 production in human PBMC by ELISA. It is filed as functional, cell-based.
Data set [7] in a line: Plasma clearance in rat. In kind it is ADME.
The nature of data set [8]: Oral bioavailability in rat. In kind it is ADME, organism-based. The settings on record: in vivo.
Data set [9] can be described thus: Half life in rat. It is filed as ADME. The settings on record: in vivo.
The nature of data set [10]: Oral bioavailability in dog. It is filed as ADME, organism-based, Canis lupus familiaris. The settings on record: in vivo.
The nature of data set [11]: Half life in dog. In kind it is ADME, Canis lupus familiaris. The settings on record: in vivo.
The nature of data set [12]: Solubility of the compound. It is filed as physicochemical.
Data set [13] in a line: Unbound fraction in human plasma. In kind it is ADME, cell-free.
Data set [14] can be described thus: cells. The settings on record: Homo sapiens, PBMC.
Description: Inhibition of IL-17A secretion in human PBMC cells
For data set [15], the species on record is Homo sapiens. Kind of data set: tissue or blood.
Description: Inhibition of IL-17A secretion in healthy human whole blood
For data set [16], the species on record is Homo sapiens. Kind of data set: tissue or blood. This is another data set of the same source.
Description: Inhibition of IL-17A secretion in psoriatic human whole blood
The species named for data set [17] is Mus musculus. Kind of data set: animal or person. The settings on record: po, read-out: INH.
Description: Anti-inflammatory activity against mouse EAE model assessed as reduction in EAE score at 100 mg/kg, po relative to control
The target in data set [18] is T1, Nuclear receptor ROR-gamma. Briefly: Inhibition of human RORgammat expressed in COS7 cells by luciferase assay. In kind it is cell-based.
A short description of data set [19]: Inhibition of human Th17 cell differentiation. It is filed as functional, cell-based.
Data set [20] in a line: Oral bioavailability in mouse. In kind it is ADME, organism-based. The settings on record: in vivo.
Data set [21] is described as follows: Half life in mouse. In kind it is ADME, organism-based. The settings on record: in vivo.
A short description of data set [22]: cells. The settings on record: Homo sapiens, PBMC. The source holds these as a separate data set.
Description: Inhibition of IL-17 production in human PBMC
Data set [23] in a line: cells. The settings on record: Homo sapiens, PBMC, 144 h.
Description: Decrease in Tc17 cell differentiation in CD8+ T cells from human PBMC cells cultured under the Tc17-skewing conditions measured after 6 days
The species entered for data set [24] is Homo sapiens. Briefly: tissue or blood. The settings on record: 18 h.
Description: Reduction of IL17 level in human whole blood measured after 18 hrs by ELISA
The species named for data set [25] is Homo sapiens. Briefly: tissue or blood. The settings on record: 18 h. The source holds these as a separate data set.
Description: Reduction of IL17F level in human whole blood measured after 18 hrs by ELISA
The species named for data set [26] is Homo sapiens. Kind of data set: tissue or blood. The settings on record: 18 h. The source holds these as a separate data set.
Description: Reduction of IL22 level in human whole blood measured after 18 hrs by ELISA
Data set [27] concerns the target T1, Nuclear receptor ROR-gamma. Kind of data set: Inverse agonist activity at His-tagged human RORgammat LBD assessed as inhibition of biotinylated RIP140 co-activator peptide binding incubated for 1 hr by TR-FRET assay. In general terms: Time-resolved FRET reads energy transfer from a long-lived donor to a nearby acceptor.
Data set [28] is filed under the species Homo sapiens. Kind of data set: Inhibition of IL-17 production in human whole blood measured after 72 hrs by ELISA. In kind it is functional.
Data set [29] in a line: Unbound fraction in human blood. It is filed as ADME, tissue-based.
A short description of data set [30]: Unbound fraction in rat blood. In kind it is ADME, tissue-based.
The nature of data set [31]: cells. The settings on record: Homo sapiens, Th17.
Description: Inhibition of IL-17 production in human Th17 cells
The target in data set [32] is T2, Nuclear receptor ROR-gamma (Homo sapiens) (UniProt P51449).
T2 sequence (whole entry): T1 sequence (P51449 whole entry)
Briefly: Inverse agonist activity at GAL4-RORgammat LBD (unknown origin) expressed in HEK293 cells at 1 uM measured after 24 hrs by nuclear receptor assay relative to control. It is filed as cell-based.

Data set [33] deals with Mus musculus. Briefly: Anti-arthritis activity against glucose-6-phosphate isomerase-induced arthritis DBA/1 mouse model assessed as reduction in paw swelling clinical score at 1000 mg/kg, po. In kind it is functional.
The nature of data set [34]: Inhibition of SRC1 coactivator recruitment in human PBMC. It is filed as functional, cell-based.
Data set [35] concerns Mus musculus. Briefly: Anti-inflammatory activity against psoriasis mouse model assessed as reduction in epidermal thickness treated topically. It is filed as functional.
For data set [36], the species on record is Homo sapiens. Kind of data set: Ex-vivo reduction in proinflammatory cytokine levels in psoriasis patient assessed as reduction in IL-17A level in skin tissue at 10 uM measured after 12 to 14 hrs by sRICA assay. The settings on record: Skin of body, time 12-14 hrs. In kind it is functional.
Data set [37] is filed under the species Homo sapiens. Briefly: Ex-vivo reduction in proinflammatory cytokine levels in psoriasis patient assessed as reduction in IL-17F level in skin tissue at 10 uM measured after 12 to 14 hrs by sRICA assay. It is filed as functional. The settings on record: Skin of body, time 12-14 hrs.
Data set [38] is filed under the species Homo sapiens. Kind of data set: Ex-vivo reduction in proinflammatory cytokine levels in psoriasis patient assessed as reduction in IL-22 level in skin tissue at 10 uM measured after 12 to 14 hrs by sRICA assay. It is filed as functional. The settings on record: Skin of body, time 12-14 hrs.
The species named for data set [39] is Homo sapiens. Kind of data set: Ex-vivo reduction in proinflammatory cytokine levels in psoriasis patient assessed as reduction in IL-19 level in skin tissue at 10 uM measured after 12 to 14 hrs by sRICA assay. It is filed as functional. The settings on record: Skin of body, time 12-14 hrs.
The target of the next data set is hERG (KCNH2) (Homo sapiens, UniProt Q12809). Briefly: Inhibition of human ERG at 3 uM relative to control. It is filed as toxicity.
hERG (KCNH2), sequence (Q12809 whole entry): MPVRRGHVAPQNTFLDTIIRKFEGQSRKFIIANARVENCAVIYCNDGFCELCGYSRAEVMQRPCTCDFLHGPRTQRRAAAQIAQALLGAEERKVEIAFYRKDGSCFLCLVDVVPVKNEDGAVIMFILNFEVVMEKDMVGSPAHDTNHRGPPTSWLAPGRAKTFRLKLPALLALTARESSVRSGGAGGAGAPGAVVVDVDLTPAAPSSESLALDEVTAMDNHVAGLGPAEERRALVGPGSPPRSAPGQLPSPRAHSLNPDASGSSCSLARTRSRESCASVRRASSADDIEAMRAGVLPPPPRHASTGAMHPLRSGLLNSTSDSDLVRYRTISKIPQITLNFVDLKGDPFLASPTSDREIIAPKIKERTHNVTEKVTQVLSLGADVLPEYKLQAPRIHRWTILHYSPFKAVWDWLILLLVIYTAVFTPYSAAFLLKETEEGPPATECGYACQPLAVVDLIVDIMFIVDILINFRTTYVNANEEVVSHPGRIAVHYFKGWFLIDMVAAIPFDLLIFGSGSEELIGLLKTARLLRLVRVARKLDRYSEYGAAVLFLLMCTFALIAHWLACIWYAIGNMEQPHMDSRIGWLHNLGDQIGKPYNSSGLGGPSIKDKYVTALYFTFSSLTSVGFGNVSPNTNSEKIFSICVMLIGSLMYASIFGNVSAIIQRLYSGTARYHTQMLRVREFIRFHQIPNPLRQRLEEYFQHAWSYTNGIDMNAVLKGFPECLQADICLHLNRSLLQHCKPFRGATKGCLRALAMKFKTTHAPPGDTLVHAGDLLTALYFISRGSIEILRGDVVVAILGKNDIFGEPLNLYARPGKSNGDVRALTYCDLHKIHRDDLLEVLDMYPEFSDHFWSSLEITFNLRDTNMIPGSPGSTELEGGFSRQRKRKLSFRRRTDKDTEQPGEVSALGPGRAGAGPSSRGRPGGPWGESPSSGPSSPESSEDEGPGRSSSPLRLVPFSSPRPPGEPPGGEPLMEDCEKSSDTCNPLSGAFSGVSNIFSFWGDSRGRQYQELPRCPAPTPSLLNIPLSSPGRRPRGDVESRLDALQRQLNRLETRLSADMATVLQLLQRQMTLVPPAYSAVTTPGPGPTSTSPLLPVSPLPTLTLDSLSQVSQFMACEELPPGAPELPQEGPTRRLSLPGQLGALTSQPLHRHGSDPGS

SMILES strings stand for the structures. Values after ≈ are worked out from the molar mass of the structure shown.

The term IC50 denotes the concentration at which inhibition is half-maximal. For the compound `Cc1cnccc1-c1nc(-c2ccccc2)c2c(n1)[C@]1(C)C=C(C#N)C(=O)[C@H](C)[C@H]1CC2`, the IC50 in data set [1] was 40 nM; in data set [2], 39 nM.

Consider `O=S(=O)(c1ccccc1)N1CCC(Cn2ncc3cc(-c4cn[nH]c4)ccc32)CC1`, for which the IC50 in data set [3], in data set [4], in data set [5] and in data set [6] was less than 10000 nM throughout.

The term clearance denotes the volume of plasma or blood freed of the substance per unit of time. A lower clearance goes with a low capacity for elimination. For the compound `O=C(O)c1ccc(-c2nn(C(=O)c3c(Cl)cccc3C3(C(F)(F)F)CC3)c3cccnc23)c(F)c1`, in data set [7], the clearance was 5 mL/min/kg.

For orientation: bioavailability means the share of a dose that reaches the circulation, judged against a reference dose that is usually intravenous. Higher therefore signals good availability. As usually defined, the half-life is how long it takes for the measured level to halve. By solubility is commonly meant how much of the substance goes into solution per volume. The low end stands for a poorly soluble substance, the high end for a readily soluble substance. Usually fraction unbound stands for the share of the substance not bound to proteins or other matrix. Take `CCS(=O)(=O)c1ccc(CNC(=O)c2cnc3c(c2)CN(C[C@H]2CC[C@H](C(F)(F)F)CC2)[C@H]3C(C)C)nc1`: the bioavailability stood at 64% in data set [8] and 66% in data set [10]. Further, the values for the half-life in data set [9] and in data set [11] were 6 h and 15 h, respectively. Besides, the concentration in solution in data set [12] (solubility) was 17 µM (≈ 9.4 µg/mL). The compound further came in with a fraction unbound in data set [13] of 0.005. Also, the IC50 in “cells [14]” is 21 nM; in the data set filed under Homo sapiens [15], 207 nM; in the data set filed under Homo sapiens [16] it was 250 nM. Besides, the inhibition in vivo at 100 mg/kg in the data set listed under Mus musculus [17] is greater than 95%.

Consider `Cc1ncc(C(=O)Nc2cc(F)cc(CN3CCN(C(=O)C4CCCC4)[C@@H](C)C3)c2C)cn1`, for which the figures for the IC50 in [18] and in [19] were 97 nM and 31 nM, respectively.

For the compound `COc1ccc2c(n1)CCN(C(=O)[C@H]1C[C@@H](CC(=O)O)C1)[C@H]2C(=O)Nc1cc(F)c2c(c1)CCC2(C)C`, the bioavailability in [20] stood at 96%. In addition, in [21], the half-life was greater than 4 h. The IC50 in the data set “cells [22]” is 102 nM; in “cells [23]”, 9.5 nM; in the data set filed under Homo sapiens [24] it was 120 nM; in the data set listed under Homo sapiens [25], 430 nM; in the data set listed under Homo sapiens [26], 1600 nM; in data set [2] it was 28 nM.

Take `O=S(=O)(c1ccc(Cl)cc1)N1CCC(Cn2ccc3cc(-c4cn[nH]c4)ccc32)CC1`: the IC50 in data set [3], in data set [4], in [5] and in [6] was less than 10000 nM each time.

On to `Cc1ncc(C(=O)Nc2cn3ccnc3c(CN3CCN(C(=O)C4CCCC4)[C@@H](C)C3)c2C)cn1`, for which the bioavailability in data set [8] was determined as 23%. Besides, the IC50 was 13 nM in [27] and 168 nM in the data set filed under Homo sapiens [28]. Moreover, the fraction unbound amounted to 0.312 in data set [29] and 0.256 in [30].

With `C[C@H]1CCCCN1C(=O)c1nc(C(=O)NCC(C)(C)O)sc1-c1cnc(NCC(C)(C)C)cc1C(F)(F)F`, in “cells [31]”, the IC50 is 2.8 nM.

The inhibition is the change of the read-out against control, counted positive when it falls. Read a high inhibition as a strong effect. Compound `NC(=O)Cc1ccc(CNc2ncnc(N3CCOC[C@@H]3c3ccc(C(F)(F)F)cc3)c2F)cc1` returned an inhibition in [32] of 80%.

For `CCS(=O)(=O)c1ccc(CNC(=O)c2cc3c(s2)C2(CCN([C@H](C)c4cnc(C(F)(F)F)nc4)CC2)O[C@@H](C)C3)nc1`, in the data set with Mus musculus [33], the inhibition in vivo at 1000 mg/kg worked out at 75%. Also, the IC50 in “cells [14]” was determined as 20 nM.

In the case of `COC(=O)[C@]12CCC(C)(C)CC1C1C(=O)C=C3[C@@]4(C)C=C(C#N)C(=O)[C@@](C)(O)[C@@H]4CC[C@@]3(C)[C@]1(C)CC2` (stereo not given in full), the IC50 in data set [1] amounted to 115 nM; in [2], 18 nM.

With `CCc1ccc(N(CC(C)C)S(=O)(=O)c2ccc(OCC3CCOCC3)c(CO)c2)cc1` [GSK2981278], the IC50 in data set [34] turned out to be 20 nM; in “cells [22]”, 63 nM. Further, the “inhibition (INH)” value in the data set on Mus musculus [35] is given as 23%. Also, the inhibition in vivo at 10 µM in the data set filed under Homo sapiens [36], in the data set listed under Homo sapiens [37], in the data set listed under Homo sapiens [38] and in the data set listed under Homo sapiens [39] was greater than 50% each time.

Take `CC[C@H]1c2ncc(C(=O)N[C@@H](CO)c3ccc(S(=O)(=O)CC)cn3)cc2CN1C[C@H]1CC[C@H](C(F)(F)F)CC1`: 3 µM produced 7.7% inhibition at hERG (KCNH2).

The values above are taken from ChEMBL document CHEMBL5260836, “Combating Autoimmune Diseases With Retinoic Acid Receptor-Related Orphan Receptor-γ (RORγ or RORc) Inhibitors: Hits and Misses” (J Med Chem, 2018).
